Measured values from patent US7964531B2, “3-phenoxy-4-pyridazinol derivatives and herbicidal composition containing the same” (Mitsui Chemicals Agro, Inc., priority 2001, dated 2011).

Assays:
Assay type in all cases: in vivo
Details in all cases: wettable powder applied 3 days after transplanting, judged after 25 days
Cyperus serotinus = assay: Test Example 1: herbicidal effects, paddy-field pot test
Method: (§1) A paddy soil was filled in 1/10,000 are pot, and seeds of barnyardgrass (Echinochloa oryzicola Vasing.), Scirpus joncoides and annual broad-leaved weeds (Lindernia spp., Rotala indica) which are awaken from dormancy were mixed at the surface layer of 1 cm. Also, tuber of Cyperus serotinus which is germinated was planted, and further seedlings of paddy-field rice at 2.2-leaf stage were transplanted, and they were grown under the flooded condition in a greenhouse. After 3 days from transplanting, a predetermined chemical dosage of the wettable powder prepared in accordance with Preparation example 1 was diluted in water, and the solution was applied to the pot and herbicidal effects and crop injury against transplanted paddy-field rice were judged after 25 days from the treatment. Also, 3-(2-allylphenoxy)-6-chloro-4-methoxypyridazine described in Chemical Pharmaceutical Bulletin, 1972, vol. 20, No. 10, pp. 2191-2203 was used as Comparative compound. Incidentally, herbicidal effects and crop injury against transplanted paddy-field rice were judged by the following judgment standard, and “-” in the table means no test was carried out.
(§2) Judgment Standard • 0: Growth inhibition rate; 0 to 10% • 1: Growth inhibition rate; 11 to 30% • 2: Growth inhibition rate; 31 to 50% • 3: Growth inhibition rate; 51 to 70% • 4: Growth inhibition rate; 71 to 90% • 5: Growth inhibition rate; 91 to 100%.

Scirpus joncoides = assay: as above
Method: as §1, §2

[1] = tested on: annual broad-leaved weeds (Lindernia spp., Rotala indica); assay: as above
Method: as §1, §2

[2] = tested on: barnyardgrass (Echinochloa oryzicola Vasing.); assay: as above
Method: as §1, §2

[3] = tested on: transplanted paddy-field rice; assay: Test Example 1: crop injury against transplanted paddy-field rice
Method: as §1, §2

Compound | Herbicidal effects Cyperus serotinus (Cyperus serotinus; chemical dosage 10 g/a) | Herbicidal effects Scirpus joncoides (Scirpus joncoides; chemical dosage 10 g/a) | Herbicidal effects Broad leaf ([1]; chemical dosage 10 g/a) | Herbicidal effects Barnyard grass ([2]; chemical dosage 10 g/a) | Crop injury against transplanted rice ([3]; chemical dosage 10 g/a) | Herbicidal effects Cyperus serotinus (Cyperus serotinus; chemical dosage 20 g/a) | Herbicidal effects Scirpus joncoides (Scirpus joncoides; chemical dosage 20 g/a) | Herbicidal effects Broad leaf ([1]; chemical dosage 20 g/a) | Herbicidal effects Barnyard grass ([2]; chemical dosage 20 g/a) | Crop injury against transplanted rice ([3]; chemical dosage 20 g/a) | also measured
Cc1cc(C)c(Oc2nnc(Cl)cc2O)c(C)c1 [Example 317] |  |  |  |  |  |  |  |  |  |  | Herbicidal effects Cyperus serotinus (Cyperus serotinus; chemical dosage 12.5 g/a): 5 (Growth inhibition rate; 91 to 100%); Herbicidal effects Cyperus serotinus (Cyperus serotinus; chemical dosage 25 g/a): 5 (Growth inhibition rate; 91 to 100%); Herbicidal effects Scirpus joncoides (Scirpus joncoides; chemical dosage 12.5 g/a): 2 (Growth inhibition rate; 31 to 50%); Herbicidal effects Scirpus joncoides (Scirpus joncoides; chemical dosage 25 g/a): 3 (Growth inhibition rate; 51 to 70%); Herbicidal effects Broad leaf ([1]; chemical dosage 12.5 g/a): 4 (Growth inhibition rate; 71 to 90%); Herbicidal effects Broad leaf ([1]; chemical dosage 25 g/a): 5 (Growth inhibition rate; 91 to 100%); Herbicidal effects Barnyard grass ([2]; chemical dosage 12.5 g/a): 0 (Growth inhibition rate; 0 to 10%); Herbicidal effects Barnyard grass ([2]; chemical dosage 25 g/a): 0 (Growth inhibition rate; 0 to 10%); Crop injury against transplanted rice ([3]; chemical dosage 12.5 g/a): 0 (Growth inhibition rate; 0 to 10%); Crop injury against transplanted rice ([3]; chemical dosage 25 g/a): 1 (Growth inhibition rate; 11 to 30%)
Oc1cc(Cl)nnc1Oc1cccc2c1C1CC1C2 (stereo not shown) [Example 14] | 5 (Growth inhibition rate; 91 to 100%) | 4 (Growth inhibition rate; 71 to 90%) | 5 (Growth inhibition rate; 91 to 100%) | 0 (Growth inhibition rate; 0 to 10%) | 0 (Growth inhibition rate; 0 to 10%) |  |  |  |  |  | 
COc1cccc(C)c1Oc1nnc(Cl)cc1O [Example 267] | 5 (Growth inhibition rate; 91 to 100%) | 4 (Growth inhibition rate; 71 to 90%) | 5 (Growth inhibition rate; 91 to 100%) | 1 (Growth inhibition rate; 11 to 30%) | 0 (Growth inhibition rate; 0 to 10%) | 5 (Growth inhibition rate; 91 to 100%) | 5 (Growth inhibition rate; 91 to 100%) | 5 (Growth inhibition rate; 91 to 100%) | 2 (Growth inhibition rate; 31 to 50%) | 0 (Growth inhibition rate; 0 to 10%) | 
Oc1cc(Cl)nnc1Oc1cccc2c1OCC2 [Example 189] | 5 (Growth inhibition rate; 91 to 100%) | 5 (Growth inhibition rate; 91 to 100%) | 5 (Growth inhibition rate; 91 to 100%) | 3 (Growth inhibition rate; 51 to 70%) | 3 (Growth inhibition rate; 51 to 70%) |  |  |  |  |  | Herbicidal effects Cyperus serotinus (Cyperus serotinus; chemical dosage 5 g/a): 5 (Growth inhibition rate; 91 to 100%); Herbicidal effects Scirpus joncoides (Scirpus joncoides; chemical dosage 5 g/a): 4 (Growth inhibition rate; 71 to 90%); Herbicidal effects Broad leaf ([1]; chemical dosage 5 g/a): 5 (Growth inhibition rate; 91 to 100%); Herbicidal effects Barnyard grass ([2]; chemical dosage 5 g/a): 2 (Growth inhibition rate; 31 to 50%); Crop injury against transplanted rice ([3]; chemical dosage 5 g/a): 0 (Growth inhibition rate; 0 to 10%)
Oc1cc(Cl)nnc1Oc1ccccc1C1CCCC1 [Example 88] |  |  |  |  |  |  |  |  |  |  | Herbicidal effects Cyperus serotinus (Cyperus serotinus; chemical dosage 12.5 g/a): 5 (Growth inhibition rate; 91 to 100%); Herbicidal effects Cyperus serotinus (Cyperus serotinus; chemical dosage 25 g/a): 5 (Growth inhibition rate; 91 to 100%); Herbicidal effects Scirpus joncoides (Scirpus joncoides; chemical dosage 12.5 g/a): 4 (Growth inhibition rate; 71 to 90%); Herbicidal effects Scirpus joncoides (Scirpus joncoides; chemical dosage 25 g/a): 5 (Growth inhibition rate; 91 to 100%); Herbicidal effects Broad leaf ([1]; chemical dosage 12.5 g/a): 4 (Growth inhibition rate; 71 to 90%); Herbicidal effects Broad leaf ([1]; chemical dosage 25 g/a): 5 (Growth inhibition rate; 91 to 100%); Herbicidal effects Barnyard grass ([2]; chemical dosage 12.5 g/a): 0 (Growth inhibition rate; 0 to 10%); Herbicidal effects Barnyard grass ([2]; chemical dosage 25 g/a): 0 (Growth inhibition rate; 0 to 10%); Crop injury against transplanted rice ([3]; chemical dosage 12.5 g/a): 0 (Growth inhibition rate; 0 to 10%); Crop injury against transplanted rice ([3]; chemical dosage 25 g/a): 0 (Growth inhibition rate; 0 to 10%)
Cc1cccc(C(C)C)c1Oc1nnc(Cl)cc1O [Example 261] | 5 (Growth inhibition rate; 91 to 100%) | 4 (Growth inhibition rate; 71 to 90%) | 5 (Growth inhibition rate; 91 to 100%) | 2 (Growth inhibition rate; 31 to 50%) | 0 (Growth inhibition rate; 0 to 10%) | 5 (Growth inhibition rate; 91 to 100%) | 5 (Growth inhibition rate; 91 to 100%) | 5 (Growth inhibition rate; 91 to 100%) | 2 (Growth inhibition rate; 31 to 50%) | 0 (Growth inhibition rate; 0 to 10%) | 
O=C(Oc1cc(Cl)nnc1Oc1ccccc1C1CC1)c1ccccc1 [Example 329] | 5 (Growth inhibition rate; 91 to 100%) | 5 (Growth inhibition rate; 91 to 100%) | 5 (Growth inhibition rate; 91 to 100%) | 2 (Growth inhibition rate; 31 to 50%) | 0 (Growth inhibition rate; 0 to 10%) | 5 (Growth inhibition rate; 91 to 100%) | 5 (Growth inhibition rate; 91 to 100%) | 5 (Growth inhibition rate; 91 to 100%) | 4 (Growth inhibition rate; 71 to 90%) | 0 (Growth inhibition rate; 0 to 10%) | 
CCOC(=O)Oc1cc(Cl)nnc1Oc1ccccc1C1CC1 [Example 347] | 5 (Growth inhibition rate; 91 to 100%) | 5 (Growth inhibition rate; 91 to 100%) | 5 (Growth inhibition rate; 91 to 100%) | 3 (Growth inhibition rate; 51 to 70%) | 0 (Growth inhibition rate; 0 to 10%) | 5 (Growth inhibition rate; 91 to 100%) | 5 (Growth inhibition rate; 91 to 100%) | 5 (Growth inhibition rate; 91 to 100%) | 4 (Growth inhibition rate; 71 to 90%) | 0 (Growth inhibition rate; 0 to 10%) | 
CSc1ccccc1Oc1nnc(Cl)cc1O [Example 129] |  |  |  |  |  |  |  |  |  |  | Herbicidal effects Cyperus serotinus (Cyperus serotinus; chemical dosage 12.5 g/a): 4 (Growth inhibition rate; 71 to 90%); Herbicidal effects Cyperus serotinus (Cyperus serotinus; chemical dosage 25 g/a): 5 (Growth inhibition rate; 91 to 100%); Herbicidal effects Scirpus joncoides (Scirpus joncoides; chemical dosage 12.5 g/a): 3 (Growth inhibition rate; 51 to 70%); Herbicidal effects Scirpus joncoides (Scirpus joncoides; chemical dosage 25 g/a): 4 (Growth inhibition rate; 71 to 90%); Herbicidal effects Broad leaf ([1]; chemical dosage 12.5 g/a): 5 (Growth inhibition rate; 91 to 100%); Herbicidal effects Broad leaf ([1]; chemical dosage 25 g/a): 5 (Growth inhibition rate; 91 to 100%); Herbicidal effects Barnyard grass ([2]; chemical dosage 12.5 g/a): 1 (Growth inhibition rate; 11 to 30%); Herbicidal effects Barnyard grass ([2]; chemical dosage 25 g/a): 2 (Growth inhibition rate; 31 to 50%); Crop injury against transplanted rice ([3]; chemical dosage 12.5 g/a): 0 (Growth inhibition rate; 0 to 10%); Crop injury against transplanted rice ([3]; chemical dosage 25 g/a): 0 (Growth inhibition rate; 0 to 10%)
CC1CCc2cccc(Oc3nnc(Cl)cc3O)c21 (stereo not shown) [Example 172] | 4 (Growth inhibition rate; 71 to 90%) | 5 (Growth inhibition rate; 91 to 100%) | 5 (Growth inhibition rate; 91 to 100%) | 5 (Growth inhibition rate; 91 to 100%) | 0 (Growth inhibition rate; 0 to 10%) | 5 (Growth inhibition rate; 91 to 100%) | 5 (Growth inhibition rate; 91 to 100%) | 5 (Growth inhibition rate; 91 to 100%) | 5 (Growth inhibition rate; 91 to 100%) | 0 (Growth inhibition rate; 0 to 10%) | 
CCCS(=O)(=O)Oc1cc(Cl)nnc1Oc1ccccc1C [Example 359] | 5 (Growth inhibition rate; 91 to 100%) | 3 (Growth inhibition rate; 51 to 70%) | 3 (Growth inhibition rate; 51 to 70%) | 4 (Growth inhibition rate; 71 to 90%) | 0 (Growth inhibition rate; 0 to 10%) | 5 (Growth inhibition rate; 91 to 100%) | 4 (Growth inhibition rate; 71 to 90%) | 5 (Growth inhibition rate; 91 to 100%) | 5 (Growth inhibition rate; 91 to 100%) | 0 (Growth inhibition rate; 0 to 10%) | 
CCc1cccc(C2CC2)c1Oc1nnc(Cl)cc1O [Example 269] | 5 (Growth inhibition rate; 91 to 100%) | 5 (Growth inhibition rate; 91 to 100%) | 5 (Growth inhibition rate; 91 to 100%) | 2 (Growth inhibition rate; 31 to 50%) | 3 (Growth inhibition rate; 51 to 70%) | 5 (Growth inhibition rate; 91 to 100%) | 5 (Growth inhibition rate; 91 to 100%) | 5 (Growth inhibition rate; 91 to 100%) | 3 (Growth inhibition rate; 51 to 70%) | 5 (Growth inhibition rate; 91 to 100%) | 
